The values below come from patent US20030225152A1, “3-(Arylamino)methylene-1, 3-dihydro-2h-indol-2-ones as kinase inhibitors” (priority 2001, published 2003).

In assay [1] the test system is VEGF induced increases in intracellular calcium levels in HUVEC (human umbilical vein endothelial cells). Put plainly: VEGF Stimulated Ca++ Signal in vitro (FLIPR). The conditions noted are these: VEGF 5 ng/mL; for IC50: 0.01 to 10.0 μM. The format is cell-based. Summed up:
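HUVEC loaded with Fluo-4 (45 min, 37° C.), washed, then pre-incubated 30 min with compound (10 μM single dose or 0.01–10.0 μM; 0.1% DMSO) before 5 ng/mL VEGF. Fluorescence at 516 nm read by FLIPR; IC50 from % inhibition of max-min VEGF response.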

For assay [2], the target named is T1, cytoplasmic domain of the human VEGF receptor (VEGFR-2) (Homo sapiens, UniProt P35968).
T1 construct: The cytoplasmic domain of the human VEGF receptor (VEGFR-2) was expressed as a Histidine-tagged fusion protein; Histidine tag
Put plainly: KDR Assay. The format is biochemical. The conditions noted are these: His-VEGFR-2; 3.6 μM ATP. Summed up: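 His-tagged human VEGFR-2 cytoplasmic domain from baculovirus-infected insect cells, acting on poly-Glu-Tyr (4:1)-coated plates with 3.6 μM ATP in Hepes pH 7.4 with MgCl2/MnCl2 and 5% final DMSO, 10 min at 25 °C. Phosphotyrosine detected by peroxidase-conjugated antibody ELISA at 492 nm; IC50 from blank-subtracted OD versus concentration.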

The test system of assay [3] is VEGF-induced EBD extravasation. As to the kind of experiment: VEGF-induced Dermal Extravasation in Guinea Pig (Miles Assay). The format is in vivo. As for the experimental part: VEGF-induced Dermal Extravasation in Guinea Pig (Miles Assay). Male Hartley guinea pigs (300-600 g) were anesthetized with isofluorane, sheared, and given a single dose of drug or the respective vehicle. The guinea pigs were dosed orally unless indicated otherwise in Table 3. Ten minutes prior to the end of drug treatment, guinea pigs were anesthetized with isofluorane, and 0.5% Evans blue dye (EBD) in PBS (13-15 mg/kg dose of EBD) was injected intravenously. After 5 minutes, triplicate intradermal injections of 100 ng rhVEGF165 in 100 μl PBS and of 100 μl PBS alone were administered on the flank. After 20 minutes, each animal was euthanized with Pentosol, and the skin containing the intradermal injection sites was removed for image analysis.
Using an analog video camera coupled to a PC, an image of each trans-illuminated skin sample was captured, and the integrated optical density of each injection site was measured using ImagePro 4. For each skin sample, the difference between the mean optical density of the VEGF sites and mean optical density of the PBS sites is the measure of VEGF-induced EBD extravasation in that animal. These measured values were averaged per study group to determine the mean VEGF-induced EBD extravasation for each experimental condition, and the group means were then compared to assess inhibition of VEGF-induced EBD extravasation in the drug-treated groups relative to the vehicle-treated controls.
To determine the dose required for 50% inhibition (ID50), the percent inhibition data was plotted as a function of oral dose, using the ‘best-fit’ analysis within MicroSoft Excel software. The ID50 value was verified visually by using the plotted data (horizontal line from 50% y value, at intersection with best-fit line drop vertical line to x axis (dose)).

T1 sequence (P35968 786-1356): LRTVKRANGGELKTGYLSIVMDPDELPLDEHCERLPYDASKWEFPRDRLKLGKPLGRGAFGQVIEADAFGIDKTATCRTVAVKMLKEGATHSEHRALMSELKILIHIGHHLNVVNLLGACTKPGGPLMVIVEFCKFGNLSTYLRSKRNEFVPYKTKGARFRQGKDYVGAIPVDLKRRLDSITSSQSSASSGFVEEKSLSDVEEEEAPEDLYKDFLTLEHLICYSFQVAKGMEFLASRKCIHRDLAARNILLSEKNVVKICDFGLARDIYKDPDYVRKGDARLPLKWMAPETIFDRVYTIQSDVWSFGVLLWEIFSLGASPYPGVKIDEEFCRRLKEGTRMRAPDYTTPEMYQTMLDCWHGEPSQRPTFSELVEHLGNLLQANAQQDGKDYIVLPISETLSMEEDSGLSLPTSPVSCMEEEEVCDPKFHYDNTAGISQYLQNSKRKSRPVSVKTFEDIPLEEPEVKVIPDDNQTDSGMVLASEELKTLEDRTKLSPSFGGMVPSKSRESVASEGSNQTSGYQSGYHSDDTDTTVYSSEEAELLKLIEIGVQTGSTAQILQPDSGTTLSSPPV

For orientation: inhibition means the share of the control response that was lost under treatment. In general, IC50 refers to the concentration that gives 50% inhibition. For `O=C1Nc2cc(F)ccc2C1=CNc1ccc(NCCN2CCOCC2)cc1` [Example 243, 6-Fluoro-3-{[4-(2-morpholin-4-yl-ethylamino)-phenylamino]-methylene}-1,3-dihydro-indol-2-one], the inhibition at 10 µM in assay [1] (Homo sapiens) was found to be 95.6%. This compound also showed an IC50 in assay [2] of 110 nM. The “Miles Assay % inhibition” value in assay [3] (75 mg/kg, corn oil, oral) was 100%.

`O=C1Nc2ccc(F)cc2C1=CNc1ccc(N2CCOCC2)cc1` [Example 167, 5-Fluoro-3-[(4-morpholin-4-yl-phenylamino)-methylene]-1,3-dihydro-indol-2-one]: the inhibition at 10 µM in assay [1] (Homo sapiens) was 95.7%. For the same compound, the IC50 in assay [2] came out at 190 nM. Also, in assay [3] (75 mg/kg, PEG400, oral), the “Miles Assay % inhibition” value worked out at 31%.

As to `CCN(CC)CCCOc1ccc(NC=C2C(=O)Nc3cccc(C)c32)cc1F` [Example 249, 3-{[4-(3-Diethylamino-propoxy)-3-fluoro-phenylamino]-methylene}-4-methyl-1,3-dihydro-indol-2-one], it took 70 nM to reach half-maximal inhibition in assay [2] (IC50). For the same compound, in assay [3] (75 mg/kg, corn oil, oral), the “Miles Assay % inhibition” value stood at 29%.

Turning to `CCN(CC)CCOc1ccc(NC=C2C(=O)Nc3cc(F)ccc32)cc1` [Example 266, 3-{[4-(2-Diethylamino-ethoxy)-phenylamino]-methylene}-6-fluoro-1,3-dihydro-indol-2-one], the IC50 in assay [2] was determined as 170 nM. In assay [3] (40 mg/kg, corn oil, oral), the “Miles Assay % inhibition” value is reported as 82%.

`O=C1Nc2cc(F)ccc2C1=CNc1ccc(OCCN2CCCC2)cc1` [Example 271, 6-Fluoro-3-{[4-(2-pyrrolidin-1-yl-ethoxy)-phenylamino]-methylene}-1,3-dihydro-indol-2-one]: inhibition in assay [2] was half-maximal at 130 nM (IC50). For the same compound, in assay [3] (40 mg/kg, corn oil, oral), the “Miles Assay % inhibition” value was found to be 98%.

Compound `O=C1Nc2cc(F)ccc2C1=CNc1ccc(OCCCCN2CCCCC2)cc1` [Example 247, 6-Fluoro-3-{[4-(4-piperidin-1-yl-butoxy)-phenylamino]-methylene}-1,3-dihydro-indol-2-one] returned an IC50 in assay [2] of 200 nM. The “Miles Assay % inhibition” value in assay [3] (75 mg/kg, corn oil, oral) turned out to be 45%.

Regarding `CC(=O)Nc1ccc(NC=C2C(=O)Nc3cccc(C)c32)cc1` [Example 130, N-{4-[(4-Methyl-2-oxo-1,2-dihydro-indol-3-ylidenemethyl)-amino]-phenyl}-acetamide], the IC50 was 570 nM in assay [1], at most 1000 nM in assay [1] (Homo sapiens) and 380 nM in assay [2]. The inhibition at 10 µM in assay [1] (Homo sapiens) was 97.3%.

With `O=C1Nc2ccc(F)cc2C1=CNc1ccc2ncsc2c1` [Example 173, 3-(Benzothiazol-6-ylaminomethylene)-5-fluoro-1,3-dihydro-indol-2-one], in assay [1] (Homo sapiens), the inhibition at 10 µM was found to be 94.5%. For the same compound, the IC50 in assay [1] (Homo sapiens) amounted to 1480 nM; in assay [2] it was 520 nM.

Take `O=C1Nc2ccc(F)cc2C1=CNc1ccc2[nH]ccc2c1` [Example 162, 5-Fluoro-3-[(1 h-indol-5-ylamino)-methylene]-1,3-dihydro-indol-2-one]: in assay [1] (Homo sapiens), the inhibition at 10 µM turned out to be 89.9% and the concentration for half-maximal inhibition (IC50) turned out to be 1050 nM. In assay [2], this compound came in with an IC50 of 300 nM.

For `O=C1Nc2ccc(Cl)cc2C1=CNc1ccc2[nH]ccc2c1` [Example 110, 5-(5-Chloro-2-oxo-1,2-dihydro-indol-3-ylidenemethylamino)indole], the inhibition at 10 µM in assay [1] (Homo sapiens) is 95%. For the same compound, the 50% inhibitory concentration (IC50) in assay [1] (Homo sapiens) was determined as 1550 nM; in assay [2], 570 nM.

As for `CCc1ccc(NC=C2C(=O)Nc3ccc(Cl)cc32)cc1` [Example 149, 5-Chloro-3-[(4-ethyl-phenylamino)-methylene]-1,3-dihydro-indol-2-one], in assay [1] (Homo sapiens), the inhibition at 10 µM was 17.7%. The compound further showed a concentration for half-maximal inhibition (IC50) in assay [2] of 620 nM.

For `Cc1ccc(NC=C2C(=O)Nc3cccc(C)c32)cc1O` [Example 125, 3-[(3-Hydroxy-4-methyl-phenylamino)-methylene]-4-methyl-1,3-dihydro-indol-2-one], the inhibition at 10 µM in assay [1] (Homo sapiens) worked out at 96.5%. Moreover, the concentration for half-maximal inhibition (IC50) was determined as 1860 nM in assay [1] (Homo sapiens) and 670 nM in assay [2].

For the compound `O=C1Nc2ccccc2C1=CNc1ccc2[nH]ncc2c1` [Example 32, 3-[(5-Indazolylamino)-methylene]-1,3-dihydro-indol-2-one], in assay [1] (Homo sapiens), the inhibition at 10 µM was found to be 72.2% and the IC50 is 2660 nM. This compound also came in with an IC50 in assay [2] of 600 nM.

Regarding `Cc1cccc2c1C(=CNc1ccc(CC(=O)O)cc1)C(=O)N2` [Example 131, {4-[(4-Methyl-2-oxo-1,2-dihydro-indol-3-ylidenemethyl)-amino]-phenyl}-acetic acid], the inhibition at 10 µM in assay [1] (Homo sapiens) was 96.7%. Also, the figures for the IC50 in assay [1] (Homo sapiens) and in assay [2] were 1550 nM and 770 nM, respectively.

Consider `COc1cccc(NC=C2C(=O)Nc3ccccc32)c1` [Example 94, 3-[(3-Methoxy-phenylamino)-methylene]-1,3-dihydro-indol-2-one], for which the inhibition at 10 µM in assay [1] (Homo sapiens) turned out to be 92.5%. Moreover, the IC50 in assay [1] (Homo sapiens) came out at 3880 nM; in assay [2], 640 nM.

For `CC(C)(C)c1ccc(NC=C2C(=O)Nc3ccccc32)cc1` [Example 17, 3-[(4-tert-Butyl-phenylamino)-methylene]-1,3-dihydro-indol-2-one], in assay [1] (Homo sapiens), the inhibition at 10 µM was determined as 76.5%. Besides, the values for the IC50 in assay [1] (Homo sapiens) and in assay [2] were 3000 nM and 790 nM, respectively.

As to `CC(O)c1ccc(NC=C2C(=O)Nc3ccc(Cl)cc32)cc1` (stereo not drawn) [Example 72, 5-Chloro-3-{[4-(1-hydroxy-ethyl)-phenylamino]-methylene}-1,3-dihydro-indol-2-one], in assay [1] (Homo sapiens), the inhibition at 10 µM came out at 81.5% and the IC50 came out at 1560 nM. In assay [2], this compound registered a half-maximal inhibitory concentration (IC50) of 430 nM.

`O=C(O)CCCc1ccc(NC=C2C(=O)Nc3ccccc32)cc1` [Example 139, 4-{4-[(2-Oxo-1,2-dihydro-indol-3-ylidenemethyl)-amino]-phenyl}-butyric acid]: the inhibition at 10 µM in assay [1] (Homo sapiens) stood at 99.3%. Also, the IC50 in assay [1] (Homo sapiens) was 1620 nM; in assay [2], 530 nM.

As to `CC(O)c1cccc(NC=C2C(=O)Nc3ccccc32)c1` (stereo not drawn) [Example 182, 3-{[3-(1-Hydroxy-ethyl)-phenylamino]-methylene}-1,3-dihydro-indol-2-one], in assay [1] (Homo sapiens), the inhibition at 10 µM turned out to be 99.3% and the IC50 was 950 nM. In addition, the IC50 in assay [2] was determined as 1650 nM.

With `Cc1cccc2c1C(=CNc1ccc3c(c1)OCO3)C(=O)N2` [Example 124, 3-(Benzo[1,3]dioxol-5-ylaminomethylene)-4-methyl-1,3-dihydro-indol-2-one], in assay [1] (Homo sapiens), the inhibition at 10 µM turned out to be 71.9% and the concentration for half-maximal inhibition (IC50) is 1960 nM. Moreover, inhibition in assay [2] was half-maximal at 520 nM (IC50).

Regarding `O=C1Nc2ccc(Cl)cc2C1=CNc1ccc(CO)cc1` [Example 111, 5-Chloro-3-[(4-(hydoxymethyl)phenylamino)-methylene]-1,3-dihydro-indol-2-one], in assay [1] (Homo sapiens), the inhibition at 10 µM worked out at 98.5% and the IC50 came out at 1170 nM. The compound also displayed an IC50 in assay [2] of 430 nM.

As to `O=C1Nc2ccc(F)cc2C1=CNc1ccccc1` [Example 169, 5-Fluoro-3-phenylaminomethylene-1,3-dihydro-indol-2-one], in assay [1] (Homo sapiens), the inhibition at 10 µM turned out to be 93.4% and the IC50 turned out to be 1160 nM. The concentration for half-maximal inhibition (IC50) in assay [2] came to 610 nM.

Consider `O=C1Nc2ccccc2C1=CNc1ccc(S(=O)(=O)NCCO)cc1` [Example 192, N-(2-Hydroxy-ethyl)-4-[(2-oxo-1,2-dihydro-indol-3-ylidenemethyl)-amino]-benzenesulfonamide], for which, in assay [1] (Homo sapiens), the inhibition at 10 µM was found to be 98.7% and the IC50 stood at 1530 nM. This compound had an IC50 in assay [2] of 590 nM.

As to `O=C1Nc2ccc(Cl)cc2C1=CNc1ccc2cn[nH]c2c1` [Example 103], the inhibition at 10 µM in assay [1] (Homo sapiens) amounted to 96.6%. Also, the figures for the half-inhibitory concentration (IC50) in assay [1] (Homo sapiens) and in assay [2] were 1040 nM and 480 nM, respectively.

For the compound `CCN(CC)CCCOc1ccc(NC=C2C(=O)Nc3cc(F)ccc32)cc1F` [Example 250, 3-{[4-(3-Diethylamino-propoxy)-3-fluoro-phenylamino]-methylene}-6-fluoro-1,3-dihydro-indol-2-one], in assay [2], half-maximal inhibition (IC50) was put at 150 nM. For the same compound, the “Miles Assay % inhibition” value in assay [3] (75 mg/kg, corn oil, oral) is reported as 62%.

With `Cc1cccc2c1C(=CNc1ccc(N3CCOCC3)cc1)C(=O)N2` [Example 227, 4-Methyl-3-[(4-morpholin-4-yl-phenylamino)-methylene]-1,3-dihydro-indol-2-one], the inhibition at 10 µM in assay [1] (Homo sapiens) was found to be 85.9%. The compound further displayed an IC50 in assay [2] of 50 nM.
